“Also recorded” adds a separate entry of the source.
Experiments:
MBP-dC10α [1] = assay: Fluorescence properties and fluorescence enhancement (FE) before/after labelling of model target protein; assay type: biochemical
Description: For experiments described herein, maltose-binding protein (MBP) was chosen as a highly-soluble test protein and the dC10α tag was fused to its C-terminus (MBP-dC10α) as described previously (Guy, J. et al., Mol. Biosyst. 2010, 6, 976-987).
Emission spectra and fluorescence intensity measurements were recorded at 37° C. with a Synergy H4 Hybrid Multi-Mode Microplate Reader with excitation and emission monochromators set at 9 nm bandpass. The mixture of 100 μM solution of fluorogen (YCx) and 100 μM MBP-dC10 in 50 mM HEPES buffer (pH 7.4) with 5% DMSO was incubated at 37° C. in the dark for 12 hours, after which the fluorescence emission spectrum of a dilution (25 μM final) in 50 mM HEPES buffer with 5% DMSO was recorded. The emission spectra of the corresponding labelling reagent in same solution without MBP-dC10α were also recorded. The ratio of fluorescence intensity at maximum emission gave the fluorescence enhancement (FE) ratio.

MBP-dC10α [2] = assay: Time-dependent fluorescence increase on reaction with test protein; assay type: biochemical; details: MBP-dC10 versus GSH
Description: (§1) Reactivity was tested through the time-dependent fluorescence increase at 37° C. using Synergy H4 Hybrid Multi-Mode Microplate Reader with excitation and emission monochromators set to 9 nm bandpass. All reactions were prepared in 50 mM HEPES buffer (pH 7.4) with 5% DMSO. Solutions of MBP-dC10α or GSH were prepared in 96-well plates and labelling reagent (YCx) in DMSO was added immediately before recording. The final concentration of labelling reagent was 25 μM, the final concentration of MBP-dC10α was 25 μM and the final concentration of GSH was 50 μM or 1 mM in 50 mM HEPES buffer (pH 7.4) with 5% DMSO. Samples were excited at 440 nm and fluorescence intensity was followed at 485 nm as a function of time.

[3] = Time-dependent fluorescence increase on reaction with GSH; details: 25 μM fluorogen, 1 mM GSH
Description: as §1

HEK293T cells = assay: MTT cytotoxicity assay; assay type: cell-based, human; details: 20 h incubation
Description: 3-(4,5-Dimethylthiazol-2-yl)-2,5-diphenyl tetrazolium bromide (MTT) is a yellow tetrazolium salt and can be reduced to formazan crystals, which are insoluble in aqueous solutions, by active mitochondria in living cells. The resulting intracellular purple formazan can be dissolved in Triton X100, and therefore quantified by measuring absorption of the solution.
Cells were seeded in a 96-well plate and incubated with 100 μL of culture medium with different amounts of the fluorogen YCx for 16 h. No fluorogen was added to the positive control and no cells were plated in the negative control. Portions of 25 μL of MTT solution (5 mg in 1 mL of Hanks' balanced salt solution) were added to the wells and the cells were further incubated at 37° C. for 4 h. Solubilization solutions (100 μL) were then added and incubated in 96-well plates at room temperature in the dark overnight. The absorption of each well was measured using a plate reader at a wavelength of 570 nm with 690 nm as a reference. Cell viability was calculated according to the following equation: Cell viability=(Awith fluorogen−Anegative control)/(Apositive control−Anegative control).

dC10α-actin = target: T1, dC10α-actin (Homo sapiens, UniProt P60709); assay: No-wash intracellular labelling of dC10α-actin in HEK 293T cells; assay type: cell-based; details: 10 μM YC20, 45 min
T1 construct: expressed in transfected cells; host or cells: HEK 293T
Description: (§2) The no-wash fluorogenic labelling reagent YC20 was used to label cellular proteins localized in different parts of living HEK 293T cells. Histone-H2B, localized in the nuclei, and actin, localized as filaments in the cytosol, were chosen as the test proteins. […] HEK293T cells were transfected to express histone H2B-dC10α or dC10α-actin and then labeled with YC20 for 45 min and directly imaged by fluorescent microscopy without any washing steps (FIG. 13; see, also, Chen, Y. et al., Angew. Chem. Int. Ed. Engl., 2014, 53, 13785-13788, the entire contents of which are hereby incorporated by reference).
(§3) Transfection and labelling were performed as follows: HEK 293T cells were plated into 60-mm dishes and grown in MEM supplemented with 10% FBS, 100 units/mL of penicillin and 100 μg/mL of streptomycin for 16 h before transfection. Cells were transiently transfected with plasmid DNA encoding for dC10α-actin or histone H2B-dC10α or with pcDNA3.1 (mock) using lipofectamine 2000 following manufacturer's instructions. Twenty-four or forty-eight hours after transfection, the cells were incubated with 10 μM YC20 (in Opti-MEM with 0.2% DMSO) for 45 min at 37° C. Cells were observed and imaged on a Nikon confocal microscope with a 25× objective. Images were taken and analyzed with NIS-Elements software.

histone H2B-dC10α [4] = assay: No-wash intracellular labelling of histone H2B-dC10α in HEK 293T cells; assay type: cell-based, human; details: 10 μM YC20, 45 min
Description: as §2, §3

histone H2B-dC10α [5] = assay: Intracellular labelling of histone H2B-dC10α in HeLa cells; assay type: cell-based, human; details: 10 μM YC20, 10 minutes
Description: HeLa cells were transfected with plasmid DNA encoding histone H2B-dC10α as described below and labelled with 10 μM YC20 for 10 minutes.
Transfection and labelling were performed as follows: HeLa cells were propagated for 2-3 weeks until the cells were stable and healthy for the transfection and labelling experiments. Cells were plated in 35 mm culture dishes (approx. 1.3×10^5 cells/plate in 2 mL of MEM or DMEM media) and incubated at 37° C. (5% CO2) for 12-16 h, after which they were transfected with the plasmid DNA encoding for the expression of histone H2B C-terminally tagged with dC10α, using 3-fold lipofectamine […] (H2B-dC10α and 6 μg of lipofectamine). For the transfections the media was changed from MEM/DMEM to OPTI-MEM and the transfection time was 45 min. The media was then changed back to MEM/DMEM and the cells were allowed to express protein for 48 h (37° C. and 5% CO2), after which the cells were treated with the corresponding fluorogen. For FlARe labelling, cells were treated with 10 μM of YC20 in 2 mL OPTI-MEM (containing 0.02% F127 and 0.2% DMSO) and incubated at 37° C. and 5% CO2 for 10 minutes.

- fluorescence in pcDNA transfected (mock) cells (dC10α-actin; HEK 293T mock cells): negligible fluorescence
Compound: CCN(CC)c1ccc2cc(C(=O)Nc3cc(N4C(=O)C=C(OC)C4=O)cc(N4C(=O)C=C(OC)C4=O)c3)c(=O)oc2c1 [YC20, N-(3,5-bis(3-methoxy-2,5-dioxo-2,5-dihydro-1H-pyrrol-1-yl)phenyl)-7-(diethylamino)-2-oxo-2H-chromene-3-carboxamide]
- fluorescence intensity change (fluorescence enhancement) (MBP-dC10α [1]; after labelling with MBP-dC10, λex = 440 nm): 29 fold
- fluorescence after the labelling reaction (MBP-dC10α [1]; after reaction with MBP-dC10α): strong fluorescence
- background (intrinsic) fluorescence before labelling / quenching (MBP-dC10α [1]; fluorogen without target protein): negligible background fluorescence
- selectivity of labelling target protein over GSH (MBP-dC10α [2]): most selective labelling reagent
- reaction with high concentration (large excess) of GSH [3]: extremely slow; also recorded: did not give any fluorescence signal
- cytotoxicity (cell viability, MTT) (HEK293T cells): neither showed any cytotoxicity up to 100 μM
- labelling of dC10α-actin (cyan channel) (dC10α-actin; HEK 293T): filament structures in the cytosol were clearly visible
- labelling of histone H2B-dC10α (cyan channel) (histone H2B-dC10α [4]): only the nuclei were fluorescently labeled
- labelling of histone H2B-dC10α (cyan channel) (histone H2B-dC10α [5]): nuclei were strongly fluorescently labeled

From US9701667B2, “Coumarin-based fluorogenic agents and uses thereof for specific protein labelling” (UNIVERSITY OF OTTAWA, priority 2014, dated 2017)
